Patent US20250179057A1, “MEK IMMUNE ONCOLOGY INHIBITORS AND THERAPEUTIC USES THEREOF” (Immuneering Corporation, priority 2022, published 2025)
Structures can show the parent of a compound that is named as a salt. Where two headings read alike, the source gives them in different places.

Columns and labels:
[1] = target: T1, CYP2B6 (Homo sapiens, UniProt P20813); assay: CYP450 panel inhibition in human liver microsomes, 2B6 (bupropion); conditions: 10 μM, substrate bupropion
T1 sequence (P20813 1-491): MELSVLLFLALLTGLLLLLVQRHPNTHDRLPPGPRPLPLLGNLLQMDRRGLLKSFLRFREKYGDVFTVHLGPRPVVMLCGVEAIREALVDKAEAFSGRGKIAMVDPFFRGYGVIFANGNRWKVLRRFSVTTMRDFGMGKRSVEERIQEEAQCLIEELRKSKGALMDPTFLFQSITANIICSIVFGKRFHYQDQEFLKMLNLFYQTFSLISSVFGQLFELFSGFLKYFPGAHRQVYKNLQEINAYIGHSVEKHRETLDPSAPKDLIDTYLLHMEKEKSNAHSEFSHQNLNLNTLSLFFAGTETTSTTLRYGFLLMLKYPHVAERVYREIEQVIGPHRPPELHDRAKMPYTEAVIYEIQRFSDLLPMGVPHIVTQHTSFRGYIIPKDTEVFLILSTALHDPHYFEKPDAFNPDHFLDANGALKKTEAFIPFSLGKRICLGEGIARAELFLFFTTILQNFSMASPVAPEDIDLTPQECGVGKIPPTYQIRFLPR

[2] = target: T2, CYP1A2 (Homo sapiens, UniProt P05177); assay: CYP450 panel inhibition in human liver microsomes, 1A2 (phenacetin); conditions: for CYP-1A2 (Phenacetin) mean percentage CYP inhibition: human liver microsomes, 10 μM, substrate phenacetin; for inhibition at 30 min, 10 µM: human, microsomes, pH 7.4
T2 sequence (P05177 1-516): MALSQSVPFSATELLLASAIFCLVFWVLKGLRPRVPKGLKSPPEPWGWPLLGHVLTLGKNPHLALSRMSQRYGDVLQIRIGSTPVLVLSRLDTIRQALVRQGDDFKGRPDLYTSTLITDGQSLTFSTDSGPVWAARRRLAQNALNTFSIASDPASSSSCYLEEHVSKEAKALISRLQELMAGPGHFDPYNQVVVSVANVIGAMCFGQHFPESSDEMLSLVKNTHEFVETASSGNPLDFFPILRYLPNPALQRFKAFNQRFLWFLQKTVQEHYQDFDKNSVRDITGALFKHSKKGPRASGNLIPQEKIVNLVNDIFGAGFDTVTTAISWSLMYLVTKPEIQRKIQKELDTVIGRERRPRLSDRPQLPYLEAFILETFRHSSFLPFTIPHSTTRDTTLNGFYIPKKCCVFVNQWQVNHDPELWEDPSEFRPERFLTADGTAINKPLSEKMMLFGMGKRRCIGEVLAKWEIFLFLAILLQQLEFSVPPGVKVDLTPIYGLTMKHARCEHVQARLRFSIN

[3] = target: T3, CYP2C8 (Homo sapiens, UniProt P10632); assay: CYP450 panel inhibition in human liver microsomes, 2C8 (amodiaquine); conditions: 10 μM, substrate amodiaquine
T3 sequence (P10632 1-490): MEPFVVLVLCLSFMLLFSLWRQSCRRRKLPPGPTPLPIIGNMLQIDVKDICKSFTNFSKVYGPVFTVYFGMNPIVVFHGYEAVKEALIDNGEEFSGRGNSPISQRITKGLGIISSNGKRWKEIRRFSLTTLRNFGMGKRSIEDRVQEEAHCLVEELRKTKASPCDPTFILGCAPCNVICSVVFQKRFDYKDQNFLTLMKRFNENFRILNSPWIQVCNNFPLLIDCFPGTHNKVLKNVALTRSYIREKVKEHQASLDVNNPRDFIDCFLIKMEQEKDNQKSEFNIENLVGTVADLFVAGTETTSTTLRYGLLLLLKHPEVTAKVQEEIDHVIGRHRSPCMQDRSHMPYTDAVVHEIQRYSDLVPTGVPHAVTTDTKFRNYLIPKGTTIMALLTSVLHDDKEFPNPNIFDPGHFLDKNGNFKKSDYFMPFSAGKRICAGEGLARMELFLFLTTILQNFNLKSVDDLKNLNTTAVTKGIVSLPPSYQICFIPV

[4] = PAMPA (pH 7.4); format: in vitro ADME; conditions: for Papp at 4 h, 50 μM: PAMPA, pH = 7.4 (Table 14)
Experimental: Each stock solution was diluted to 50 M in pH 7.4 Prisma HT buffer (pION) and 200 μl was added to each well of the donor plate in triplicate. The polyvinylidene fluoride (PVDF, 0.45 μm) filter membrane on the acceptor plate was coated with 5 μl gastrointestinal tract lipid formulation (GIT-0, pION) and to each well of the acceptor plate, 200 μl of acceptor sink buffer (pION) was added. The acceptor filter plate was then carefully placed on top of the donor plate to form a sandwich. The sandwich was incubated at 25° C. for 4 h without stirring. UV-vis spectra of the solutions in the blank, reference, acceptor and donor plates were measured using a microplate reader (Tecan Infinite 200PRO M Nano Plus). Permeability values were calculated using the PAMPA explorer software v.

[5] = Mouse pharmacokinetics (oral cassette dosing), plasma; format: in vivo; conditions: BALB/c immunocompetent mice, 5 mg/kg p.o.
Experimental: Female mice (BALC/c) received a single dose (3 mice/treatment) of vehicle (10% 1N HCl:90% [20% […]) and at 0.5, 1, 2, 4, 8, 12 and 24-hour post dose humanely euthanized.
Blood was obtained through cardiac puncture into K+EDTA tubes, mixed by inversion and centrifuged to obtain the plasma. Blood will be kept on ice or at approximately 4° C. prior. Centrifugation will take place within 30 minutes of blood collection affording plasma samples. Plasma samples will be frozen as soon as possible after centrifugation and stored at −80° C. until analysis. All samples will be analysed by means of LC-MS/MS. Method development for bioanalysis will be performed by pharmacokinetics Department of Crown Bioscience (Taicang) Inc. using LC-MS/MS analysis (using Waters HSS T3 2.1×50 mm (1.8 um) LC column, and an API-4000 Electrospray MS unit). The results of a kinetic solubility (free base) study are represented in Table 19.

[6] = Hepatocyte stability, wistar hannover rat; format: in vitro ADME; conditions: 0.5 million cells/ml; for CLint scaled at 2 μM: Wistar Hannover, rat, hepatocytes; for half-life at 2 μM: wistar hannover rat hepatocytes
Experimental: (§1) In this study, human, cynomolgus monkey, beagle dog, wistar hannover rat, and balb/c mouse hepatocyle stability was determined.

[7] = Hepatocyte stability, cynomolgus monkey; format: in vitro ADME; conditions: 0.5 million cells/ml; for half-life at 2 μM: cynomolgus monkey hepatocytes; for CLint scaled at 2 μM: cynomolgus monkey, hepatocytes
Experimental: as §1

[8] = Hepatocyte stability, beagle dog; format: in vitro ADME; conditions: 0.5 million cells/ml; for half-life at 2 μM: beagle dog hepatocytes; for CLint scaled at 2 μM: beagle, dog, hepatocytes
Experimental: as §1

[9] = Hepatocyte stability, balb/c mouse; format: in vitro ADME; conditions: 0.5 million cells/ml; for CLint scaled at 2 μM: BALB/c, mouse, hepatocytes; for half-life at 2 μM: balb/c mouse hepatocytes
Experimental: as §1

[10] = read-out: CLint (L/hr/kg) (converted)
[11] = female, mouse, read-out: AUC0-t

CNS(=O)(=O)Nc1cccc(Cc2c(CN(C)C)c3ccc(OC(=O)N(C)C)cc3oc2=O)c1F [Compound 9]
CYP-2B6 (Bupropion) mean percentage CYP inhibition [1]: −2.5% | CYP-1A2 (Phenacetin) mean percentage CYP inhibition [2]: 2.8% | CYP-2C8 (Amodiaquine) mean percentage CYP inhibition [3]: 15.5% | PAMPA (pH = 7.4; Papp 10^−6 cm/s) ([4]; pH = 7.4): 37 10^−6 cm/s | AUC0-∞ [5]: 445 ng·h/mL | AUC(0-t) [5]: 441 ng·h/mL | Cmax [5]: 725 ng/mL | T1/2 [5]: 1.1 h | Tmax [5]: 0.083 h

CNS(=O)(=O)Nc1cccc(Cc2c(CN(C)C)c3cc(F)c(OC(=O)N(C)C)cc3oc2=O)c1F [Compound 25]
CYP-2B6 (Bupropion) mean percentage CYP inhibition [1]: 16.0% | CYP-1A2 (Phenacetin) mean percentage CYP inhibition [2]: 7.9% | CYP-2C8 (Amodiaquine) mean percentage CYP inhibition [3]: 77.2% | AUC0-∞ [5]: 1426 ng·h/mL | AUC(0-t) [5]: 1336 ng·h/mL | Cmax [5]: 1037 ng/mL | T1/2 [5]: 1.1 h | Tmax [5]: 0.083 h

CCS(=O)(=O)Nc1cccc(Cc2c(CN(C)C)c3ccc(OC(=O)N(C)C)cc3oc2=O)c1F [Compound 120]
CYP-2B6 (Bupropion) mean percentage CYP inhibition [1]: 13.4% | CYP-1A2 (Phenacetin) mean percentage CYP inhibition [2]: −3.7% | CYP-2C8 (Amodiaquine) mean percentage CYP inhibition [3]: 21.9% | AUC0-∞ [5]: 673.2 ng·h/mL | AUC(0-t) [5]: 669.3 ng·h/mL | Cmax [5]: 1422.7 ng/mL | T1/2 [5]: 0.3 h | Tmax [5]: 0.083 h

CNS(=O)(=O)Nc1nccc(Cc2c(CN(C)C)c3ccc(OC(=O)N(C)C)cc3oc2=O)c1F [Compound 124]
CYP-2B6 (Bupropion) mean percentage CYP inhibition [1]: 25.5% | CYP-1A2 (Phenacetin) mean percentage CYP inhibition [2]: 9.9% | CYP-2C8 (Amodiaquine) mean percentage CYP inhibition [3]: 59.0%

CNS(=O)(=O)Nc1cccc(Cc2c(CN3CCNCC3)c3cc(F)c(OC(=O)N(C)C)cc3oc2=O)c1F [Compound 134]
CYP-2B6 (Bupropion) mean percentage CYP inhibition [1]: 10.3% | CYP-1A2 (Phenacetin) mean percentage CYP inhibition [2]: −0.9% | CYP-2C8 (Amodiaquine) mean percentage CYP inhibition [3]: 78.8%

CCCS(=O)(=O)Nc1cccc(Cc2c(CN3CCNCC3)c3cc(Cl)c(OC(=O)N(C)C)cc3oc2=O)c1F [Compound 167]
CYP-2B6 (Bupropion) mean percentage CYP inhibition [1]: 19.8% | CYP-1A2 (Phenacetin) mean percentage CYP inhibition [2]: 10.8% | CYP-2C8 (Amodiaquine) mean percentage CYP inhibition [3]: 61.8%

CNS(=O)(=O)Nc1cccc(Cc2c(CN3CCNCC3)c3cc(Cl)c(OC(=O)N(C)C)cc3oc2=O)c1Cl [Compound 256, 6-chloro-3-(2-chloro-3-((N-methylsulfamoyl)amino)benzyl)-2-oxo-4-(piperazin-1-ylmethyl)-2H-chromen-7-yl dimethylcarbamate hydrochloride]
inhibition at 30 min, 10 µM [2]: 6.2% | CLint scaled at 2 μM [6, 10]: 2.12 L/h/kg | CLint scaled at 2 μM ([6]; read-out: CLint (mL/min/kg)): 2.12 L/h/kg | half-life at 2 μM [6]: 1.75 h | half-life at 2 μM [7]: 2.25 h | CLint scaled at 2 μM [7, 10]: 2.5 L/h/kg | CLint scaled at 2 μM ([7]; read-out: CLint (mL/min/kg)): 2.5 L/h/kg | half-life at 2 μM [8]: 2.98 h | CLint scaled at 2 μM [8, 10]: 2.5 L/h/kg | CLint scaled at 2 μM ([8]; read-out: CLint (mL/min/kg)): 2.5 L/h/kg | CLint scaled at 2 μM [9, 10]: 4.98 L/h/kg | CLint scaled at 2 μM ([9]; read-out: CLint (mL/min/kg)): 4.98 L/h/kg | half-life at 2 μM [9]: 3.28 h | Papp at 4 h, 50 μM [4]: 4 ×10⁻⁶ cm/s | AUC(0-inf) ([5]; female, mouse): 28.3 ng·h/mL | AUC(0-t) [5, 11]: 19.5 ng·h/mL | Cmax ([5]; female, mouse, read-out: Cmax): 8.3 ng/mL | Tmax ([5]; female, mouse, read-out: Tmax): 0.5 h

CCS(=O)(=O)Nc1cccc(Cc2c(CN3CCNCC3)c3cc(Cl)c(OC(=O)N(C)C)cc3oc2=O)c1Cl [Compound 257, 6-chloro-3-(2-chloro-3-(ethylsulfonamido)benzyl)-2-oxo-4-(piperazin-1-ylmethyl)-2H-chromen-7-yl dimethylcarbamate hydrochloride]
inhibition at 30 min, 10 µM [2]: 9.9% | CLint scaled at 2 μM [6, 10]: 2.13 L/h/kg | CLint scaled at 2 μM ([6]; read-out: CLint (mL/min/kg)): 2.13 L/h/kg | half-life at 2 μM [6]: 1.75 h | half-life at 2 μM [7]: 2.98 h | CLint scaled at 2 μM [7, 10]: 1.88 L/h/kg | CLint scaled at 2 μM ([7]; read-out: CLint (mL/min/kg)): 1.88 L/h/kg | half-life at 2 μM [8]: 1.88 h | CLint scaled at 2 μM [8, 10]: 3.96 L/h/kg | CLint scaled at 2 μM ([8]; read-out: CLint (mL/min/kg)): 3.97 L/h/kg | CLint scaled at 2 μM [9, 10]: 4.78 L/h/kg | CLint scaled at 2 μM ([9]; read-out: CLint (mL/min/kg)): 4.78 L/h/kg | half-life at 2 μM [9]: 3.43 h | Papp at 4 h, 50 μM [4]: 8 ×10⁻⁶ cm/s | AUC(0-t) [5, 11]: 103 ng·h/mL | Cmax ([5]; female, mouse, read-out: Cmax): 20.3 ng/mL | Tmax ([5]; female, mouse, read-out: Tmax): 4 h
